Source: publication PMC12062478, “Screening herbal and natural product libraries to aid discovery of novel allosteric modulators of human P2X7” (Purinergic Signalling, 2024)
Where two headings read alike, the source gives them in different places.

Key:
[1] = Cytotoxicity of purified glycoside (data not shown); assay type: cell-based
[2] = target: T1, P2X7 (Homo sapiens, UniProt Q99572); assay: ATP-induced YO-PRO-1 dye uptake in HEK-hP2X7 cells; assay type: cell-based; details: for IC50: HEK-hP2X7, 10 min pre-treatment, ATP 1 mM, read-out: IC50 value (95% CI); for Effect on P2X7 responses: purified glycosides/aglycone from potentiating extracts
T1 construct: expressed in transfected cells
T1 sequence (Q99572 1-595): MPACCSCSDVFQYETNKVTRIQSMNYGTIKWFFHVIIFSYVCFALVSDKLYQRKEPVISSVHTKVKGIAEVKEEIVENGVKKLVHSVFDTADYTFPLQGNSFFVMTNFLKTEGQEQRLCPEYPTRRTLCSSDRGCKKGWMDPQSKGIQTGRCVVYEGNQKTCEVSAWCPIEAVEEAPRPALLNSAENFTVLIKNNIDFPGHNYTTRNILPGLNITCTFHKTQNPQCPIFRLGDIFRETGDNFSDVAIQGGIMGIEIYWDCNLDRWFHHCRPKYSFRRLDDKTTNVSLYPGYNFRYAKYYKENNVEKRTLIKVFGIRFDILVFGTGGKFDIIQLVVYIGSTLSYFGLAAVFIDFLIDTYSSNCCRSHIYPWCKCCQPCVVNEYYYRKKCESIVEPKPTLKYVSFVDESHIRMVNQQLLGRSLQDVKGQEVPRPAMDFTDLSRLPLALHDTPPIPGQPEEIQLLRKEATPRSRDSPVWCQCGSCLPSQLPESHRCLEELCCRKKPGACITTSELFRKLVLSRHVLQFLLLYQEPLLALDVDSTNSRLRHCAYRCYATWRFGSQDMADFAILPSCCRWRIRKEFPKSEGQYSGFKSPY
Method: HEK-hP2X7 or HEK-hP2X4 cells were plated at 2.5 × 10^4 cells per well (100 µL volume) the day before experiments into poly-D-lysine (Merck Millipore) coated 96-well plates (NUNC, Fisher Scientific #167-008). The membrane impermeant dye YO-PRO-1 iodide (Life Technologies, Fisher Scientific) was used at a final concentration of 2 µM in low divalent buffer (145 mM NaCl, 5 mM KCl, 0.2 mM CaCl2, 13 mM glucose, 10 mM HEPES, pH 7.3, osm 300–310). Media were removed from the plate, and 90 µL of YO-PRO-1 buffer was added per well. Plates were warmed to 37 °C for 5 min before recording. Data was acquired on a Flexstation 3 plate reader (Molecular Devices) using excitation wavelength 490 nm, emission wavelength 520 nm, and six reads per well (PMT medium). […] […] Pipette height was set to 80 µL and the rate of injection was 4.
YO-PRO-1 dye uptake assay data is plotted as a percentage of control where control responses are measured in the absence of plant extract. Cell viability data is plotted as a percentage of control or background-corrected fluorescence data. Concentration–response graphs were plotted using GraphPad Prism v6 with a non-linear regression fit (variable slope). IC50 values were generated from collated datasets from a minimum of three independent experiments. Statistical differences were determined by one-way ANOVA statistical tests performed using GraphPad Prism v6 with Dunnett’s multiple comparison post hoc test. Significance was taken as P ≤ 0.05.
We acquired a natural product library (Set IV) containing 419 compounds from NCI DTP and tested these on P2X7 responses using a YO-PRO-1 dye uptake in HEK293 cells stably expressing human P2X7 (HEK-hP2X7). […] This allowed us to assess for any immediate effect of the injected compound, and secondly, it allowed for any potential negative modulators to be pre-incubated with P2X7.

[3] = target: T2, hP2X7 (Homo sapiens, UniProt Q99572); details: cited from earlier work
T2 sequence (Q99572 1-595): T1 sequence (Q99572 1-595)

[4] = target: T1, P2X7; assay: fura-2 intracellular calcium assay in HEK-hP2X7 cells; assay type: cell-based; details: fura-2-loaded HEK-hP2X7, 10 min pre-treatment, 1 mM ATP
Method: Supplementary Figure 3: Validation of P2X7 antagonist activity using a fura-2 assay. HEK-hP2X7 cells were loaded with fura-2AM (2µM) to measure intracellular calcium responses to ATP. Cells were loaded for 45 minutes at 37 °C and then pre-treated with various concentrations of test compounds for 10 minutes. For full methodological details please see [1]. Responses to 1mM ATP were assessed over 300 seconds using a Flexstation 3 plate reader. Ratiometric fura-2 data was converted to area under curve.

[5] = target: T2, hP2X7; assay: Whole-cell patch-clamp electrophysiology in HEK-hP2X7 cells; assay type: cell-based; details: for Potentiation of hP2X7 ion channel opening: 10 µM with ATP 100 µM, 5-s application, −60 mV
Method: Stably expressing HEK-hP2X7 cells were plated onto 13-mm glass coverslips 24 h prior to use. Membrane currents were recorded in the whole-cell patch-clamp configuration using an EPC10 amplifier (HEKA Elektronik) and borosilicate glass electrodes (TF-150 World Precision Instruments), resistance […] when filled with standard internal solution (145 mM NaCl, 10 mM HEPES, 10 mM EGTA, pH 7.3). Cells were voltage-clamped at − 60 mV, and dialysis of intracellular contents was performed for 1 min prior to experimental procedures. Cells were continuously perfused by gravity feed with standard divalent buffer solution (145 mM NaCl, 5 mM KCl, 2 mM CaCl2, 1 mM MgCl2, 13 mM glucose, 10 mM HEPES, pH 7.3) prior to seal formation, and low divalent buffer solution was used for agonist and PAM application. Agonists were applied using a computer-controlled fast-flow system (RSC-160; Bio-Logic Scientific Instruments) with the perfusion capillaries placed in close proximity to the cell under investigation.
(§1) Fig. 6 Dioscin enhances P2X7-dependent pore formation and potentiates channel opening. A Dioscorea nipponica (organic) plant extract (30 µg/mL) increased ATP-dependent YO-PRO-1 iodide uptake. AZ10606120 (10 µM, grey bars) was added to block hP2X7. B YO-PRO-1 uptake following a co-stimulation of HEK-hP2X7 cells with 200 µM ATP ± the named compounds in the presence or absence of AZ10606120. YO-PRO-1 uptake was quantified between 50 and 300 s (n = 5). C Whole-cell patch-clamp recordings were performed at room temperature. Cells were voltage-clamped at − 60 mV, and responses to a 5-s stimulation of ATP (100 µM) followed by a 5-s stimulation of ATP (100 µM) + dioscin/diosgenin (10 µM) were measured from HEK-hP2X7 cells. Representative traces are shown. D Summary of normalised current amplitudes represented as a fold change compared to ATP responses in the absence of dioscin/diosgenin (n = 10–18 cells). E Concentration response to ATP in the presence of dioscin (10 µM, green) or vehicle (DMSO, black) using YO-PRO-1 uptake assay in HEK-hP2X7 and F HEK-293 cells. […]

[6] = test system: HEK-293 cells; assay: Cell viability assay (AlamarBlue) in non-transfected HEK-293 cells; assay type: cell-based, human; details: 10 µM, 24 h
Method: Cells were plated at 2 × 10^4 cells/well in Nunc 96-well plates (Fisher Scientific #167-008) 24 h prior to stimulation with ATP 500 µM or 3 mM in combination with identified positive or negative crude plant extracts, respectively, or with purified compounds (10 µM) for 24 h. Following incubation, resazurin (0.1 mg/mL in PBS, Sigma-Aldrich) was added to cells for 2 h at 37 °C and fluorescence was measured on a Flexstation 3 plate reader (excitation 570 nm; emission 600 nm).
as §1, with “cells).” for “cells). E Concentration response to ATP in the presence of dioscin (10 µM, green) or vehicle (DMSO, black) using YO-PRO-1 uptake assay in HEK-hP2X7 and F HEK-293 cells.”

[7] = test system: non-transfected HEK-293 cells; assay: YO-PRO-1 dye uptake in non-transfected HEK-293 cells; assay type: cell-based, human; details: 10 µM, in the presence of ATP
Method: HEK-hP2X7 or HEK-hP2X4 cells were plated at 2.5 × 10^4 cells per well (100 µL volume) the day before experiments into poly-D-lysine (Merck Millipore) coated 96-well plates (NUNC, Fisher Scientific #167-008). The membrane impermeant dye YO-PRO-1 iodide (Life Technologies, Fisher Scientific) was used at a final concentration of 2 µM in low divalent buffer (145 mM NaCl, 5 mM KCl, 0.2 mM CaCl2, 13 mM glucose, 10 mM HEPES, pH 7.3, osm 300–310). Media were removed from the plate, and 90 µL of YO-PRO-1 buffer was added per well. Plates were warmed to 37 °C for 5 min before recording. Data was acquired on a Flexstation 3 plate reader (Molecular Devices) using excitation wavelength 490 nm, emission wavelength 520 nm, and six reads per well (PMT medium). Compounds or plant extracts at 10X final concentration were automatically injected at 30 s, and then, ATP was automatically injected at 90 s from a 96-well V-bottomed drug plate (Greiner). This enabled cells to be pre-treated with compounds/plant extracts for 60 s before the agonist was injected. […]
Fig. 6 Dioscin enhances P2X7-dependent pore formation and potentiates channel opening. […] YO-PRO-1 uptake was quantified between 50 and 300 s (n = 5). […] Cells were voltage-clamped at − 60 mV, and responses to a 5-s stimulation of ATP (100 µM) followed by a 5-s stimulation of ATP (100 µM) + dioscin/diosgenin (10 µM) were measured from HEK-hP2X7 cells. […]

[8] = test system: HEK293 cells; assay: Propidium iodide staining of HEK293 cells (membrane permeabilisation); assay type: cell-based, human
Method: Fig. 6 Dioscin enhances P2X7-dependent pore formation and potentiates channel opening. A Dioscorea nipponica (organic) plant extract (30 µg/mL) increased ATP-dependent YO-PRO-1 iodide uptake. AZ10606120 (10 µM, grey bars) was added to block hP2X7. B YO-PRO-1 uptake following a co-stimulation of HEK-hP2X7 cells with 200 µM ATP ± the named compounds in the presence or absence of AZ10606120. YO-PRO-1 uptake was quantified between 50 and 300 s (n = 5). C Whole-cell patch-clamp recordings were performed at room temperature. Cells were voltage-clamped at − 60 mV, and responses to a 5-s stimulation of ATP (100 µM) followed by a 5-s stimulation of ATP (100 µM) + dioscin/diosgenin (10 µM) were measured from HEK-hP2X7 cells. Representative traces are shown. D Summary of normalised current amplitudes represented as a fold change compared to ATP responses in the absence of dioscin/diosgenin (n = 10–18 cells). E Concentration response to ATP in the presence of dioscin (10 µM, green) or vehicle (DMSO, black) using YO-PRO-1 uptake assay in HEK-hP2X7 and F HEK-293 cells. […] H HEK-293 cells were treated with dioscin or CK (10 µM) for 10 min and stained with propidium iodide to reveal permeabilised cells. Images taken with EVOS microscope

CC1(C)CC[C@]2(C(=O)O)CC[C@]3(C)C(=CC[C@@H]4[C@@]5(C)CC[C@H](O[C@@H]6O[C@H](C(=O)O)[C@@H](O)[C@H](O[C@@H]7OC[C@@H](O)[C@H](O)[C@H]7O)[C@H]6O)C(C)(C)[C@@H]5CC[C@]43C)[C@@H]2C1 [Momordin Ic, momordin Ic]
Cytotoxicity [1]: high level of cytotoxicity

Cc1cc(O)c2c(c1)C(=O)c1cc(O)cc(O)c1C2=O [Emodin]
IC50 [2]: 55.2 µM
IC50 ([3]; electrophysiological recordings, read-out: IC50): 3 µM

O=C(O[C@@H]1Cc2c(O)cc(O)cc2O[C@@H]1c1cc(O)c(O)c(O)c1)c1cc(O)c(O)c(O)c1 [EGCG, epigallocatechin gallate]
P2X7 antagonist activity on ATP-induced calcium responses [4]: demonstrated P2X7 antagonist activity

C[C@@H]1CC[C@@]2(OC1)O[C@H]1C[C@H]3[C@@H]4CC=C5C[C@@H](O)CC[C@]5(C)[C@H]4CC[C@]3(C)[C@H]1[C@@H]2C [Diosgenin, diosgenin]
Effect on P2X7 responses [2]: could not potentiate responses
Potentiation of hP2X7 ion channel opening [5]: not capable of potentiating P2X7 channel opening

COc1ccc2cc3[n+](cc2c1OC)CCc1cc2c(cc1-3)OCO2 [Berberine]
IC50 [2]: 5.17 µM
P2X7 antagonist activity on ATP-induced calcium responses [4]: demonstrated P2X7 antagonist activity

O=C(O)c1cc(O)c(O)c(O)c1 [gallic acid]
IC50 ([3]; inhibition of hP2X7 currents by electrophysiology, read-out: IC50 value): 4.26 µM

C[C@@H]1CC[C@@]2(OC1)O[C@H]1C[C@H]3[C@@H]4CC=C5C[C@@H](O[C@@H]6O[C@H](CO)[C@@H](O[C@@H]7O[C@@H](C)[C@H](O)[C@@H](O)[C@H]7O)[C@H](O)[C@H]6O[C@@H]6O[C@@H](C)[C@H](O)[C@@H](O)[C@H]6O)CC[C@]5(C)[C@H]4CC[C@]3(C)[C@H]1[C@@H]2C [Dioscin, dioscin]
Sensitivity of the potentiated ATP response to P2X7 antagonist AZ10606120 ([2]; AZ10606120 10 µM): could be reduced with AZ10606120
Effect on YO-PRO-1 dye uptake with 200 µM ATP ([2]; co-stimulation with 200 µM ATP): able to enhance YO-PRO-1 dye uptake
Effect on ATP concentration–response curve ([2]; compound 10 µM): increase in the maximum response with no leftward shift
Effect on P2X7 responses [2]: could effectively potentiate P2X7 responses
Cell death in non-transfected HEK-293 cells [6]: induce cell death
YO-PRO-1 dye uptake in non-transfected cells [7]: increase YO-PRO-1 dye uptake in non-transfected HEK-293 cells in the presence of ATP
Potentiation of hP2X7 ion channel opening [5]: could potentiate hP2X7 ion channel opening
Ion channel opening by compound alone ([5]; short 5-s application): not inducing ion channel opening itself
Application time after which membrane permeabilisation was observed [8]: > 10 min
Propidium iodide staining ([8]; 10 µM, within 10 min of addition): induce propidium iodide staining
